The target of assay [1] is T1, Atypical chemokine receptor 3 (Homo sapiens, UniProt P25106). Briefly: Displacement of [125I]-CXCL12 from human CXCR7 expressed in HEK293 cells after 3 hrs. Format: cell-based. A general note: Displacement assays read how much labelled ligand stays bound in the presence of the test substance.
For assay [2], the target named is T1, Atypical chemokine receptor 3. Kind of assay: Agonist activity at human CXCR7 expressed in HEK293T cells co-expressing beta-arrestin2-YFP assessed as beta-arrestin2 recruitment after 1 hr by BRET assay. Format: functional, cell-based, HEK-293T. The following applies: for Activity: HEK-293T. Background: Arrestin recruitment assays detect the binding of arrestin to an activated receptor.

For assay [3] the target is unchanged. Briefly: Agonist activity at human CXCR7 expressed in HEK293 cells assessed as reduction of receptor surface expression at 10^-5 M after 1 hr by ELISA based internalization assay. Format: functional, cell-based. On the technique in general: In an ELISA, binding on a coated surface is turned into a signal by an enzyme label.
The target is the same in assay [4]. Briefly: Agonist activity at human CXCR7 expressed in HEK293 cells assessed as reduction of receptor surface expression after 1 hr by ELISA based internalization assay. It is filed as functional, cell-based.

Molecules are shown by their SMILES. Calls of active or inactive are those of the source. The rule behind the calls is not given here.

As a reminder, the Ki is a measure of affinity in units of concentration, obtained from inhibition or displacement. A lower Ki goes with higher affinity. The EC50 is the concentration that produces a half-maximal response.

T1 sequence (P25106 whole entry): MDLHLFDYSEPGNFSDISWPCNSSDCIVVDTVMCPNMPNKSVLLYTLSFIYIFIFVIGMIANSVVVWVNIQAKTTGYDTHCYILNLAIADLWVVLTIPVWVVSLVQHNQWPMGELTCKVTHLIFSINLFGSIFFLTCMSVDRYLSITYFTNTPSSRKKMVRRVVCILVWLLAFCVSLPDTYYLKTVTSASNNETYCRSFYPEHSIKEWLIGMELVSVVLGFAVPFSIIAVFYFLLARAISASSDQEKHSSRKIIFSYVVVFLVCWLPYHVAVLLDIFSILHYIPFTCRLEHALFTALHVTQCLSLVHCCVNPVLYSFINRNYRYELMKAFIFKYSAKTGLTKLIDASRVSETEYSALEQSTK

Molecule `COc1ccc(C(=O)N(CCC2CCCN2C)C/C(C)=C/c2ccc(F)cc2)cc1OC` (racemic) had a Ki in assay [1] of 79.4 nM.
In assay [1], `COc1ccc(C(=O)N(CCC2CCCN2C)C/C(C)=C/c2cccc(F)c2)cc1OC` (racemic) gave a Ki of 100 nM. This Ki and that of the molecule before are within 1.5-fold of each other.
`C/C(=C\c1ccc(F)cc1F)CN(CCC1CCCN1C)C(=O)c1ccc2c(c1)OCCO2` (racemic) gave a Ki in assay [1] of 1580 nM.
For the molecule `COc1cc(C(=O)N(CCC2CCCN2C)C/C(C)=C/c2ccc(F)cc2)cc(OC)c1OC` (racemic), in assay [1], the Ki is 50.1 nM.
In assay [1], `C/C(=C\c1ccc(F)cc1F)CN(CCC1CCCN1C)C(=O)c1ccc2c(c1)OCO2` (racemic) gave a Ki of 3160 nM.
In assay [1], `COc1cc(C(=O)N(CCC2CCCN2C)C/C(C)=C/c2cccc(F)c2)cc(OC)c1OC` (racemic) showed a Ki of 79.4 nM.
Turning to `COc1ccc(C(=O)N(CCC2CCCN2C)C/C(C)=C/c2ccc(F)cc2F)cc1OC` (racemic), the Ki in assay [1] is 100 nM.
With `COc1cc(C(=O)N(CCCN2CCOCC2)C/C(C)=C/c2ccccc2)cc(OC)c1OC`, the Ki in assay [1] was 398 nM.
For `C/C(=C\c1ccccc1)CN(CCC1CCCN1C)C(=O)c1ccc2c(c1)OCCO2` (racemic), in assay [1], the Ki is 794 nM.
As to `COc1cc(C(=O)N(CCC2CCCN2C)C/C(C)=C/c2ccc(F)cc2F)cc(OC)c1OC` (racemic), the Ki in assay [1] is 31.6 nM. This Ki is about 25-fold lower than that of the molecule before.
On to `COc1cc(C(=O)N(CCCN2CCCCC2C)C/C(C)=C/c2ccccc2)cc(OC)c1OC` (racemic), for which the Ki in assay [1] was 200 nM.
In the case of `COc1cc(C(=O)N(CCC2CCCN2C)C/C(C)=C/c2cc(F)cc(C(F)(F)F)c2)cc(OC)c1OC` (racemic), the concentration for a half-maximal effect (EC50) in assay [2] came out at 1400 nM. For the same molecule, the Ki in assay [1] is 5010 nM. Further, in assay [3], the outcome was Active.
`COc1ccc(C(=O)N(CCC2CCCN2C)C/C(C)=C/c2ccccc2)cc1C` (racemic) showed a Ki in assay [1] of 794 nM. In other words, the sub-micromolar range.
The molecule `COc1cc(C(=O)N(CCC2CCCN2C)C/C(C)=C/c2ccccc2)cc(OC)c1OC` (racemic) showed a Ki in assay [1] of 15.8 nM.
As for `COc1ccc(/C=C(\C)CN(CCC2CCCN2C)C(=O)c2ccc(OC)c(OC)c2)c(F)c1` (racemic), the Ki in assay [1] was 1260 nM.
On to `COc1cc(C(=O)N(C/C=C/c2ccccc2)CCC2CCCN2C)cc(OC)c1OC` (racemic), for which, in assay [1], the Ki was 794 nM.
Consider `COc1cc(C(=O)N(CCC2CCCN2C)C/C(C)=C/c2ccccc2F)cc(OC)c1OC` (racemic), for which, in assay [2], the EC50 came to 1.6 nM and the Activity result is “Dose-dependent effect”. The same molecule had a Ki in assay [1] of 7.94 nM. Further, in assay [4], the Activity result was “Dose-dependent effect” and the EC50 stood at 14.1 nM.
On to `COc1ccc(/C=C(\C)CN(CCC2CCCN2C)C(=O)c2cc(OC)c(OC)c(OC)c2)c(F)c1` (racemic), for which the affinity in assay [1], expressed as Ki, was 1260 nM.
The same measure, in the same setting: as for `COc1ccc(C(=O)N(CCC2CCCN2C)C/C(C)=C/c2ccccc2)cc1OC` (racemic), the figure is 25.1 nM; as for `COc1cc(C(=O)N(C/C=C(\C)c2ccccc2)CCC2CCCN2C)cc(OC)c1OC` (racemic), 12.6 nM; as for `COc1ccc(C(=O)N(CCC2CCCN2C)C/C(C)=C/c2cc(F)cc(C(F)(F)F)c2)cc1OC` (racemic), 5010 nM.
Take `COc1ccc(C(=O)N(CCC2CCCN2C)C/C(C)=C/c2ccccc2F)cc1OC` (racemic): in assay [2], the EC50 was determined as 1 nM and the Activity entry is “Dose-dependent effect”. The molecule further gave a Ki in assay [1] of 20 nM. In assay [4], the Activity result was “Dose-dependent effect” and the EC50 is 23.7 nM.
With `COc1cc(C(=O)N(CCCO)C/C(C)=C/c2ccccc2)cc(OC)c1OC`, the Ki in assay [1] was 1580 nM.
Still for that read-out and setting: under `COc1ccc(C(=O)N(CCC2CCCN2C)C/C(C)=C/c2ccccc2)c(OC)c1` (racemic) stands 1260 nM.
